US9422338B2 (EpoDose LLC, priority 2011, dated 2016)
Each block holds one compound with its values, some of them ahead of it. Bridges are numbered along the chain shown (N, C = ends). Roman numbers before positions name the chains, in order. [ ]: non-standard residue; d: D form. ξ: configuration not given here. 1Nal = N[C@@H](Cc1cccc2ccccc12)C(=O)O; ξK = NCCCCC(N)C(=O)O; Ava = NCCCCC(=O)O

Target: T1, EPOR (erythropoietin receptor), human recombinant, NSO cells (Homo sapiens, UniProt P19235)
T1 construct: host or cells: NSO cells
T1 sequence (P19235 25-250 limits assumed): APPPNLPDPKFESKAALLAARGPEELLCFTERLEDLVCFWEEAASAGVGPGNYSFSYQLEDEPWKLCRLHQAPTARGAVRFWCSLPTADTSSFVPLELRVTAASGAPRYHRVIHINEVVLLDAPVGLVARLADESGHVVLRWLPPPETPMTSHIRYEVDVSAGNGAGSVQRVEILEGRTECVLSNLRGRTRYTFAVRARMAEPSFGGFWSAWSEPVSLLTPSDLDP
Test: EPOR radioligand binding assay ([125I] Erythropoietin competition)
Conditions: for Ki (AC-0005-002)/Ki: Ki relative to that of AC-0005-002; for Ki/Ki(EPO): Ki relative to that of EPO
Experimental: IC50 values were determined by a non-linear, least squares regression analysis using MATHIQ™ (computer software for integrating mathematical functions into new or existing software). […] Where presented, the Hill coefficient (nH), defining the slope of the competitive binding curve, was calculated using MATHIQ™.

[1] = Example 2, mimetics varied in loop, mid and C-end

Ki (AC-0005-002)/Ki (Example 4, sixth table): 195 | Ki/Ki(EPO) (Example 4, sixth table): 330
Compound: CCN[C@@H](CC(N)=O)C(=O)N[C@@H](Cc1ccc(O)cc1)C(=O)N[C@@H](CC(C)C)C(=O)NC1CCOCC(C(=O)N[C@@H](CCCCNC(=N)N)C(=O)N2CCC[C@H]2C(=O)NC(CCCC(=O)NCCCCC(NC(=O)[C@@H]2CCCN2C(=O)[C@H](CCCCNC(=N)N)NC(=O)C2COCCC(NC(=O)[C@H](CC(C)C)NC(=O)[C@H](Cc3ccc(O)cc3)NC(=O)[C@H](CC(N)=O)NC(C)=O)C(=O)N[C@@H](CCCNC(=N)N)C(=O)N[C@@H](CCSC)C(=O)N3CCC[C@H]3C(=O)N[C@@H](Cc3ccc4ccccc4c3)C(=O)N[C@@H](C(C)C)C(=O)N2)C(=O)N[C@@H](CCCNC(=N)N)C(N)=O)C(=O)N[C@@H](CCCNC(=N)N)C(N)=O)NC(=O)[C@H](C(C)C)NC(=O)[C@H](Cc2ccc3ccccc3c2)NC(=O)[C@@H]2CCCN2C(=O)[C@H](CCSC)NC(=O)[C@H](CCCNC(=N)N)NC1=O (stereo partly drawn) [AC-0005-060]

Ki [1]: 27.7 nM | IC50 (Example 4, sixth table): 58.5 nM
Compound: CSCC[C@@H]1NC(=O)[C@H](CCCNC(=N)N)NC(=O)C(NC(=O)[C@H](CC(C)C)NC(=O)[C@H](Cc2ccc(O)cc2)NC(=O)[C@H](CC(N)=O)NC(C)=O)CCOCC(C(=O)N[C@@H](CCCCN)C(=O)N2CCC[C@H]2C(=O)NC(CCCCNC(=O)CCCC(NC(=O)[C@@H]2CCCN2C(=O)[C@H](CCCCN)NC(=O)C2COCCC(NC(=O)[C@H](CC(C)C)NC(=O)[C@H](Cc3ccc(O)cc3)NC(=O)[C@H](CC(N)=O)NC(C)=O)C(=O)N[C@@H](CCCNC(=N)N)C(=O)N[C@@H](CCSC)C(=O)N3CCC[C@H]3C(=O)N[C@@H](Cc3ccc4ccccc4c3)C(=O)N[C@@H](C(C)C)C(=O)N2)C(=O)N[C@@H](CCCNC(=N)N)C(N)=O)C(=O)N[C@@H](CCCNC(=N)N)C(N)=O)NC(=O)[C@H](C(C)C)NC(=O)[C@H](Cc2ccc3ccccc3c2)NC(=O)[C@@H]2CCCN2C1=O (stereo partly drawn) [AC-0005-061]

Ki [1]: 1.2 nM | IC50 (Example 4, sixth table): 2.4 nM
Compound: CSCC[C@@H]1NC(=O)[C@H](CCCNC(=N)N)NC(=O)C(NC(=O)[C@H](CC(C)C)NC(=O)[C@H](Cc2ccc(O)cc2)NC(=O)[C@H](CC(N)=O)NC(C)=O)CCOCC(C(=O)N[C@@H](CCCCN)C(=O)N2CCC[C@H]2C(=O)NC(CCCCNC(=O)CCCC(NC(=O)[C@@H]2CCCN2C(=O)[C@H](CCCCN)NC(=O)C2COCCC(NC(=O)[C@H](CC(C)C)NC(=O)[C@H](Cc3ccc(O)cc3)NC(=O)[C@H](CC(N)=O)NC(C)=O)C(=O)N[C@@H](CCCNC(=N)N)C(=O)N[C@@H](CCSC)C(=O)N3CCC[C@H]3C(=O)N[C@@H](Cc3ccc4ccccc4c3)C(=O)N[C@@H](C(C)C)C(=O)N2)C(=O)NCCC(=O)N[C@@H](CCCNC(=N)N)C(N)=O)C(=O)NCCC(=O)N[C@@H](CCCNC(=N)N)C(N)=O)NC(=O)[C@H](C(C)C)NC(=O)[C@H](Cc2ccc3ccccc3c2)NC(=O)[C@@H]2CCCN2C1=O (stereo partly drawn) [AC-0005-062]

Ki [1]: 1 nM | IC50 (Example 4, sixth table): 2.2 nM
Compound: CSCC[C@@H]1NC(=O)[C@H](CCCNC(=N)N)NC(=O)C(NC(=O)[C@H](CC(C)C)NC(=O)[C@H](Cc2ccc(O)cc2)NC(=O)[C@H](CC(N)=O)NC(C)=O)CCOCC(C(=O)N[C@@H](CCCCNC(=N)N)C(=O)N2CCC[C@H]2C(=O)NC(CCCCNC(=O)CCCC(NC(=O)[C@@H]2CCCN2C(=O)[C@H](CCCCNC(=N)N)NC(=O)C2COCCC(NC(=O)[C@H](CC(C)C)NC(=O)[C@H](Cc3ccc(O)cc3)NC(=O)[C@H](CC(N)=O)NC(C)=O)C(=O)N[C@@H](CCCNC(=N)N)C(=O)N[C@@H](CCSC)C(=O)N3CCC[C@H]3C(=O)N[C@@H](Cc3ccc4ccccc4c3)C(=O)N[C@@H](C(C)C)C(=O)N2)C(=O)NCCC(=O)N[C@@H](CCCNC(=N)N)C(N)=O)C(=O)NCCC(=O)N[C@@H](CCCNC(=N)N)C(N)=O)NC(=O)[C@H](C(C)C)NC(=O)[C@H](Cc2ccc3ccccc3c2)NC(=O)[C@@H]2CCCN2C1=O (stereo partly drawn) [AC-0005-063]

Ki [1]: 0.6 nM | IC50 (Example 4, sixth table): 1.3 nM
Compound: CSCC[C@@H]1NC(=O)[C@H](CCCNC(=N)N)NC(=O)C(NC(=O)[C@H](CC(C)C)NC(=O)[C@H](Cc2ccc(O)cc2)NC(=O)[C@H](CC(N)=O)NC(C)=O)CCOCC(C(=O)N[C@@H](CCCCNC(=N)N)C(=O)N2CCC[C@H]2C(=O)NCCCOCCC(OCCCNC(=O)[C@@H]2CCCN2C(=O)[C@H](CCCCNC(=N)N)NC(=O)C2COCCC(NC(=O)[C@H](CC(C)C)NC(=O)[C@H](Cc3ccc(O)cc3)NC(=O)[C@H](CC(N)=O)NC(C)=O)C(=O)N[C@@H](CCCNC(=N)N)C(=O)N[C@@H](CCSC)C(=O)N3CCC[C@H]3C(=O)N[C@@H](Cc3ccc4ccccc4c3)C(=O)N[C@@H](C(C)C)C(=O)N2)C(N)=O)NC(=O)[C@H](C(C)C)NC(=O)[C@H](Cc2ccc3ccccc3c2)NC(=O)[C@@H]2CCCN2C1=O (stereo partly drawn) [AC-0005-064]

The remaining lines, values behind:

Compound: CSCC[C@@H]1NC(=O)[C@H](Cc2c[nH]cn2)NC(=O)C(NC(=O)[C@H](CC(C)C)NC(=O)[C@H](Cc2ccc(O)cc2)NC(=O)[C@H](CC(N)=O)NC(C)=O)CCOCC(C(=O)N[C@@H](CCCCNC(=N)N)C(=O)N2CCC[C@H]2C(=O)NCCCCC(=O)NCCCCC(NC(=O)[C@@H]2CCCN2C(=O)[C@H](CCCCNC(=N)N)NC(=O)C2COCCC(NC(=O)[C@H](CC(C)C)NC(=O)[C@H](Cc3ccc(O)cc3)NC(=O)[C@H](CC(N)=O)NC(C)=O)C(=O)N[C@@H](Cc3c[nH]cn3)C(=O)N[C@@H](CCSC)C(=O)N3CCC[C@H]3C(=O)N[C@@H](Cc3ccc4ccccc4c3)C(=O)N[C@@H](C(C)C)C(=O)N2)C(N)=O)NC(=O)[C@H](C(C)C)NC(=O)[C@H](Cc2ccc3ccccc3c2)NC(=O)[C@@H]2CCCN2C1=O (stereo partly drawn) [AC-0005-056]
Ki (Example 1, mimetics varied in N-end, loop and mid sequences): 11.2 nM | IC50 (Example 3): 23.5 nM | Ki (Example 3, Cheng-Prusoff): 11.1 nM | IC50 (Example 4, fifth table): 24 nM

Compound: CSCC[C@H]1COC2CCCC2C(=O)N[C@@H](Cc2c[nH]c3ccccc23)C(=O)N[C@@H](C(C)C)C(=O)NC(C(=O)N[C@@H](CCCCNC(=N)N)C(=O)N2CCC[C@H]2C(=O)NCCCCC(=O)NCCCCC(NC(=O)[C@@H]2CCCN2C(=O)[C@H](CCCCNC(=N)N)NC(=O)C2COCCC(NC(=O)[C@H](CC(C)C)NC(=O)[C@H](Cc3ccc(O)cc3)NC(=O)[C@H](CC(N)=O)NC(C)=O)C(=O)N[C@@H](CCCNC(=N)N)C(=O)N[C@@H](CCSC)COC3CCCC3C(=O)N[C@@H](Cc3c[nH]c4ccccc34)C(=O)N[C@@H](C(C)C)C(=O)N2)C(N)=O)COCCC(NC(=O)[C@H](CC(C)C)NC(=O)[C@H](Cc2ccc(O)cc2)NC(=O)[C@H](CC(N)=O)NC(C)=O)C(=O)N[C@@H](CCCNC(=N)N)C(=O)N1 (stereo partly drawn) [AC-0005-057]
NH (Hill coefficient) (Example 3, slope of competitive binding curve): 1.84 | Ki (AC-0005-002)/Ki (Example 4, fifth table): 379 | Ki/Ki(EPO) (Example 4, fifth table): 128

Compound: I: Ac-GGLYACHMGPIT[1Nal]VCQPQGG[ξK]-NH2 / II: Ac-GGNYLCHMGPIT[1Nal]VCQPQGG[Ava] (disulfide I:6-I:15, II:6-II:15; amide I:21-II:C) [AC-0005-002]
Ki (AC-0005-002)/Ki (Example 4, first table): 1
